Assay results from PubChem BioAssay (NCI).
Several values for one entry are separate records, joined by “and”; a condition that tells them apart may be missing. Identical values can stand only once.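 All cell lines were grown in 96-well plates and treated with compound for 48 hours. Abbreviation: GI50, concentration required for 50% inhibition of growth. TGI: total growth inhibition.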

Experiments:
Assay in all cases: NCI-60 cell line screen, 48 h
CCRF-CEM leukemia = system: CCRF-CEM leukemia
HOP-92 NSCLC = system: HOP-92 NSCLC
OVCAR-5 ovarian = system: OVCAR-5 ovarian
NCI-H522 lung = system: NCI-H522 lung
A549 NSCLC = system: A549 NSCLC
HS 578T breast = system: HS 578T breast
RXF 393 renal = system: RXF 393 renal
NCI-H226 lung = system: NCI-H226 lung
SK-MEL-5 melanoma = system: SK-MEL-5 melanoma
LOX IMVI melanoma = system: LOX IMVI melanoma

Row | SMILES | GI50 (CCRF-CEM leukemia) [µM] | TGI (CCRF-CEM leukemia) [µM] | GI50 (HOP-92 NSCLC) [µM] | TGI (HOP-92 NSCLC) [µM] | GI50 (OVCAR-5 ovarian) [µM] | TGI (OVCAR-5 ovarian) [µM] | GI50 (NCI-H522 lung) [µM] | TGI (NCI-H522 lung) | GI50 (A549 NSCLC) [µM] | TGI (A549 NSCLC) [µM] | GI50 (HS 578T breast) [µM] | TGI (HS 578T breast) [µM] | GI50 (RXF 393 renal) [µM] | TGI (RXF 393 renal) [µM] | GI50 (NCI-H226 lung) [µM] | TGI (NCI-H226 lung) | GI50 (SK-MEL-5 melanoma) [µM] | TGI (SK-MEL-5 melanoma) | GI50 (LOX IMVI melanoma) [µM] | TGI (LOX IMVI melanoma) [µM]
1 | O=C(Nc1ccc(OC(F)(F)Cl)cc1)c1cnc(N2CC[C@@H](O)C2)c(-c2ccn[nH]2)c1 | 11.3 | 43.2 | 17.3 | 41.3 | 12.9 | 34.2 | 12.6 | 31.6 µM | 10.5 | 33.6 | 17.6 | 49.3 | 15.8 | 35.6 | 11.8 | 30 µM | 10.7 | 22.7 µM | 4.84 | 18.7
2 | CCCCCCCCCCCCCCNC(=O)Nc1ccc(Cl)c(Cl)c1 | 2.5 | 11.1 | 2.75 | 8.65 | 3.69 | > 100 | 1.66 | 5.75 µM | 3.34 | > 100 | 3.14 | 15 | 4.01 | > 26.3 | 3.21 | > 100 µM | 1.68 | 3.23 µM | 3.23 | > 100
3 | Cc1noc(NC(=O)Nc2ccccc2F)c1C#N |  | > 100 |  | > 100 |  | > 45.8 |  | > 34.7 µM |  | > 52.1 |  | > 56.4 |  | > 100 |  | > 100 µM |  | > 100 µM |  | > 100
4 | NC(N)=NCCCC(NCc1c2ccccc2nc2ccccc12)C(=O)O (stereo not given) |  | 75.1 |  | > 83.5 |  | > 100 |  | 69.9 µM |  | > 100 |  | > 100 |  | > 100 |  | > 100 µM |  | > 62.2 µM |  | 97.9
5 | CN1CCN(c2c(F)cc(NC3=C(Cl)C(=O)c4ncccc4C3=O)cc2F)CC1 | 2.24 | 22 | 1.55 | 3.22 | 14.8 | 28 | 1.43 | 3.82 µM | 18 | 35.4 | 11.2 | 56.4 | 1.67 | 3.31 | 22.2 | 55.9 µM | 15.2 | 28.8 µM | 2.15 | 5.17
6 | N#CC(C#N)=C/C=C(\Sc1ccc(Cl)cc1)c1ccc(F)cc1 | 0.0177 | > 100 | 0.501 | 13.2 | 1.37 | 15.3 | 2.8 | > 47.6 µM | 8.61 | 32.3 | 2.75 | 22.8 | 5.36 | > 100 | 2.72 | 17.8 µM | 1.76 | 6.33 µM | 0.403 | 
7 | COc1cc(OC)c(OC)cc1/C=C/c1nc2ccccc2s1 |  | > 100 |  | 56.9 |  | > 100 |  | > 100 µM |  | > 100 |  | > 100 |  | > 100 |  | > 100 µM |  | > 100 µM |  | > 100
8 | CC(C)Cc1ccc(C(C)/C=C2\CCC(CN(C)C)C2=O)cc1 (stereo not given) |  | 23.4 |  | 39.1 |  | 43.1 |  | 15.2 µM |  | 69.5 |  | 8.45 |  | 35.1 |  | 46.4 µM |  | 19.4 µM |  | 15.6
9 | CC(=O)Oc1ccc(C2=Cc3ccc(OC(C)=O)cc3OC2C)cc1 (stereo not given) | 0.525 | 22.5 | 6.74 | > 100 | 21.1 | > 100 | 3.58 | 23.1 µM | 6.29 | > 100 | 2.75 | 7.81 | 4.11 | 26.4 | 4.96 | 53.8 µM | 7.24 | 29.9 µM | 4.09 | 26.2
10 | CC(C)[C@@H]1CC[C@]2(CO2)[C@@H]2C(=O)OCC(C(=O)O)=C[C@H]21 | 0.319 | 2.85 | 0.235 | 0.79 | 0.54 | > 100 | 0.0462 | 0.155 µM | 1.57 | > 100 | 0.288 | 2.3 | 0.3 | 1.37 | 0.667 | > 100 µM | 0.348 | 1.51 µM | 0.331 | 1.42
11 | CCCCCCCCCCCC[C@@H](O)[C@H]1CC[C@H]([C@H](O)CC[C@H](O)[C@@H]2CC[C@@H](CCCCCCCC3=C[C@H](C)OC3=O)O2)O1 | 1.22 | > 50 | 3.08 | > 50 |  | > 50 |  | > 50 µM | 2.2 | > 50 | > 50 | > 50 |  | > 50 |  | > 50 µM | 1.3 | 7.93 µM and > 50 µM | 1.13 | 
12 | COc1ccccc1CNCCN1C(=O)c2ccc3c4c(ccc(c24)C1=O)C(=O)N(CCNCc1ccccc1OC)C3=O | 0.244 |  | 1.71 | 4.38 | 0.68 | 3.34 | 0.137 | 0.314 µM | 0.204 | 0.47 | 1.17 | 4.88 | 0.18 | 0.397 | 1.26 | 2.77 µM | 0.348 | 1.4 µM | 0.168 | 0.338
13 | Cc1cnc(C(=O)NNc2nc3sc4c(c3c(=O)[nH]2)C(C)CCC4)cn1 (stereo not given) | 0.671 | > 100 | 1.84 | 62.9 | 2.1 | 15.8 | 2.97 | > 100 µM | 1.23 | 14 | 4 | 84.4 | 1.76 | 8.2 | 1.7 | 12.3 µM | 1.04 | 3.36 µM | 0.708 | 6.37
14 | COc1ccc(C(O)c2cc3c(N)c(C(=O)Nc4cccc5ccccc45)sc3nc2C)cc1 (stereo not given) | 0.378 | > 100 | 0.911 | > 27.5 | 0.493 | > 100 | 0.157 |  | 0.381 | > 100 | 0.319 | > 100 | 3.23 | > 100 | 0.416 | > 88 µM | 0.327 | 1.25 µM | 0.444 | > 39.9
15 | COc1ccc(-c2cc(/C=C/C(=O)c3ccc(N)cc3)[nH]n2)cc1OC | 1.74 | 7.81 | 14.9 | 30.9 | 2.62 | 7.94 | 1.65 | 3.22 µM | 2.75 | 10.1 | 6.58 | > 100 | 2.15 | 5.12 | 2.32 | 7.38 µM | 3.16 | 11.5 µM | 1.92 | 3.91
16 | COCCN(Cc1ccc(F)cc1)c1ccc(CO)c(Cl)c1 | 45.2 | > 100 | 8.16 | 60.1 | 0.431 | 2.52 | 39.1 | > 100 µM | 10.4 | > 79.5 | 60.9 | > 100 | 4.9 | > 34.6 | 0.152 | 0.353 µM | 12.2 | 26.2 µM | 36.2 | > 100
17 | C=CCN(CC=C)C(=O)c1cc(C)nc2c1c(=O)n(-c1ccccc1)c(=O)n2CCCN1CCN(c2ccccc2OC)CC1 | > 50 | > 50 | 4.57 | > 50 | > 50 | > 50 | > 50 | > 50 µM | > 50 | > 50 | > 50 | > 50 | > 50 | > 50 | > 50 | > 50 µM | > 50 | > 50 µM | > 50 | > 50
18 | COc1ccc(/C=C2\CCC/C(=C\c3ccc(OC)c(OC)c3)C2=O)cc1OC | 1.49 | > 32.5 | 11.3 | > 32.5 | 25 | > 32.5 | 2.19 | 15.4 µM | 1.79 | > 32.5 | 7.95 | > 32.5 | 0.613 | 3.18 | 21.9 | > 32.5 µM | 1.88 | > 32.5 µM | 1.15 | 9.02
19 | COC12C(COC(=O)NCCO)C3=C(C(=O)C(C)=C(N)C3=O)N1CC1NC12 (stereo not given) |  | > 264 | 76.3 | 222 | 78.1 | > 264 | 36.1 | 33.5 µM and 99.6 µM | 29.7 | > 264 |  | > 264 | 141 | > 264 | 30.2 | 71 µM and 150 µM | 23.9 | 45 µM and 58.2 µM | 22.2 | 64.7
20 | Cc1cc(Br)c(NC(=O)c2c(-c3c(Cl)cccc3Cl)noc2C)c(Br)c1 | > 100 | > 100 | > 100 | > 100 | > 100 | > 100 | > 100 | > 100 µM | > 100 | > 100 | 26.5 | > 100 | 71.9 | > 100 | 82.5 | > 100 µM | > 100 | > 100 µM | > 100 | > 100
